Broadly, the IC50 is the concentration that gives 50% inhibition. Read a high IC50 as weaker potency.

Results on 16 compounds are retold here after patent US20250136578A1 (Kolm Therapeutics Inc., priority 2023, published 2025).

Experiment [1] has as its target AR / CBP ternary complex (Homo sapiens, UniProt P10275+Q92793). Description: Ternary complex formation assay (sandwich ELISA, AR capture, CBP antibody detection) in VCaP cell lysates. It is filed as cell-based. The gist of the method: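 VCaP cells in 5% charcoal-stripped FBS were cultured ≥3 days and then given bifunctional compound for 1.5 h. Lysates went onto AR-antibody-coated plates. Bound CBP (or p300) was detected with a rabbit antibody plus HRP anti-rabbit, using QuantaRed chemifluorescence (ex 570/em 585) read immediately, at 5 min and at 15 min.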
(In general: In an ELISA, binding on a coated surface is turned into a signal by an enzyme label.)

Experiment [2] relates to VCaP cells. Description: VCaP growth inhibition assay (CTG). The note with it: Homo sapiens, 216 h, 30 pM R1881, 9 days. It is filed as cell-based. The method, boiled down: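 VCaP cells in phenol red-free DMEM with 5% charcoal-stripped serum were stimulated with 30 pM R1881 (final) and treated with compound from 100 nM to 10 fM final (1:5 dilutions) for 9 days at 37 °C. Viability was read by CellTiter-Glo luminescence, and IC50 came from 4-parameter logistic fits.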

The mark [3] stands for this setting: read-out: Average Ternary Complex, treated 1.5 hours, rabbit CBP or p300 antibody detection.
The mark [4] stands for this setting: treated 1.5 hours, rabbit CBP or p300 antibody detection, average, read-out: Average Ternary Complex.

Like-named read-outs stand apart in the source and are kept apart here. Bounds are passed on as bounds.

AR / CBP ternary complex, sequence (P10275 whole entry): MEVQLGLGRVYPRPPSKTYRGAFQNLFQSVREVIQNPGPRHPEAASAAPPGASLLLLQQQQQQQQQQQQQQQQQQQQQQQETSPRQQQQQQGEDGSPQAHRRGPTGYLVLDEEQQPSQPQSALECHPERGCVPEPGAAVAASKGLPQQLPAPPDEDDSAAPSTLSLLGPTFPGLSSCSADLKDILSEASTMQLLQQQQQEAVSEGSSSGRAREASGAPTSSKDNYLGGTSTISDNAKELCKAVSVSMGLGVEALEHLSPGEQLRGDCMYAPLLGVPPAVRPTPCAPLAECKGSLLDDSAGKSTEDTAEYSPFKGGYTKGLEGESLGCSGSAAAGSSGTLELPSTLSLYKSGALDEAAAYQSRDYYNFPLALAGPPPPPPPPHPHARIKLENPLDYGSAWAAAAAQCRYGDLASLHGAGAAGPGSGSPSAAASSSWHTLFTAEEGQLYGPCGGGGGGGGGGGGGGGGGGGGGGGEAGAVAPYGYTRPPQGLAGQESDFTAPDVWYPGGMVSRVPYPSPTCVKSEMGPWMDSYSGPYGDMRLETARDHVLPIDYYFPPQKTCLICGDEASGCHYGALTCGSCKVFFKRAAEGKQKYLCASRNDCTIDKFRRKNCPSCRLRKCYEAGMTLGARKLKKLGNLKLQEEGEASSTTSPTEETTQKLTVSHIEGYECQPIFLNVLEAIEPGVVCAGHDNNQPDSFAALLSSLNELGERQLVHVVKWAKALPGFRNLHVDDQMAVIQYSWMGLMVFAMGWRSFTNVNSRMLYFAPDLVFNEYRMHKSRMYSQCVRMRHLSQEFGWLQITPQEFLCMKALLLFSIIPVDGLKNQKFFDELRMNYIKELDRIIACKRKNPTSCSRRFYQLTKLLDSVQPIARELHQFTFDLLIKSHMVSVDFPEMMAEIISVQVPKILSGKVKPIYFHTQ
AR / CBP ternary complex, sequence (Q92793 2-2442): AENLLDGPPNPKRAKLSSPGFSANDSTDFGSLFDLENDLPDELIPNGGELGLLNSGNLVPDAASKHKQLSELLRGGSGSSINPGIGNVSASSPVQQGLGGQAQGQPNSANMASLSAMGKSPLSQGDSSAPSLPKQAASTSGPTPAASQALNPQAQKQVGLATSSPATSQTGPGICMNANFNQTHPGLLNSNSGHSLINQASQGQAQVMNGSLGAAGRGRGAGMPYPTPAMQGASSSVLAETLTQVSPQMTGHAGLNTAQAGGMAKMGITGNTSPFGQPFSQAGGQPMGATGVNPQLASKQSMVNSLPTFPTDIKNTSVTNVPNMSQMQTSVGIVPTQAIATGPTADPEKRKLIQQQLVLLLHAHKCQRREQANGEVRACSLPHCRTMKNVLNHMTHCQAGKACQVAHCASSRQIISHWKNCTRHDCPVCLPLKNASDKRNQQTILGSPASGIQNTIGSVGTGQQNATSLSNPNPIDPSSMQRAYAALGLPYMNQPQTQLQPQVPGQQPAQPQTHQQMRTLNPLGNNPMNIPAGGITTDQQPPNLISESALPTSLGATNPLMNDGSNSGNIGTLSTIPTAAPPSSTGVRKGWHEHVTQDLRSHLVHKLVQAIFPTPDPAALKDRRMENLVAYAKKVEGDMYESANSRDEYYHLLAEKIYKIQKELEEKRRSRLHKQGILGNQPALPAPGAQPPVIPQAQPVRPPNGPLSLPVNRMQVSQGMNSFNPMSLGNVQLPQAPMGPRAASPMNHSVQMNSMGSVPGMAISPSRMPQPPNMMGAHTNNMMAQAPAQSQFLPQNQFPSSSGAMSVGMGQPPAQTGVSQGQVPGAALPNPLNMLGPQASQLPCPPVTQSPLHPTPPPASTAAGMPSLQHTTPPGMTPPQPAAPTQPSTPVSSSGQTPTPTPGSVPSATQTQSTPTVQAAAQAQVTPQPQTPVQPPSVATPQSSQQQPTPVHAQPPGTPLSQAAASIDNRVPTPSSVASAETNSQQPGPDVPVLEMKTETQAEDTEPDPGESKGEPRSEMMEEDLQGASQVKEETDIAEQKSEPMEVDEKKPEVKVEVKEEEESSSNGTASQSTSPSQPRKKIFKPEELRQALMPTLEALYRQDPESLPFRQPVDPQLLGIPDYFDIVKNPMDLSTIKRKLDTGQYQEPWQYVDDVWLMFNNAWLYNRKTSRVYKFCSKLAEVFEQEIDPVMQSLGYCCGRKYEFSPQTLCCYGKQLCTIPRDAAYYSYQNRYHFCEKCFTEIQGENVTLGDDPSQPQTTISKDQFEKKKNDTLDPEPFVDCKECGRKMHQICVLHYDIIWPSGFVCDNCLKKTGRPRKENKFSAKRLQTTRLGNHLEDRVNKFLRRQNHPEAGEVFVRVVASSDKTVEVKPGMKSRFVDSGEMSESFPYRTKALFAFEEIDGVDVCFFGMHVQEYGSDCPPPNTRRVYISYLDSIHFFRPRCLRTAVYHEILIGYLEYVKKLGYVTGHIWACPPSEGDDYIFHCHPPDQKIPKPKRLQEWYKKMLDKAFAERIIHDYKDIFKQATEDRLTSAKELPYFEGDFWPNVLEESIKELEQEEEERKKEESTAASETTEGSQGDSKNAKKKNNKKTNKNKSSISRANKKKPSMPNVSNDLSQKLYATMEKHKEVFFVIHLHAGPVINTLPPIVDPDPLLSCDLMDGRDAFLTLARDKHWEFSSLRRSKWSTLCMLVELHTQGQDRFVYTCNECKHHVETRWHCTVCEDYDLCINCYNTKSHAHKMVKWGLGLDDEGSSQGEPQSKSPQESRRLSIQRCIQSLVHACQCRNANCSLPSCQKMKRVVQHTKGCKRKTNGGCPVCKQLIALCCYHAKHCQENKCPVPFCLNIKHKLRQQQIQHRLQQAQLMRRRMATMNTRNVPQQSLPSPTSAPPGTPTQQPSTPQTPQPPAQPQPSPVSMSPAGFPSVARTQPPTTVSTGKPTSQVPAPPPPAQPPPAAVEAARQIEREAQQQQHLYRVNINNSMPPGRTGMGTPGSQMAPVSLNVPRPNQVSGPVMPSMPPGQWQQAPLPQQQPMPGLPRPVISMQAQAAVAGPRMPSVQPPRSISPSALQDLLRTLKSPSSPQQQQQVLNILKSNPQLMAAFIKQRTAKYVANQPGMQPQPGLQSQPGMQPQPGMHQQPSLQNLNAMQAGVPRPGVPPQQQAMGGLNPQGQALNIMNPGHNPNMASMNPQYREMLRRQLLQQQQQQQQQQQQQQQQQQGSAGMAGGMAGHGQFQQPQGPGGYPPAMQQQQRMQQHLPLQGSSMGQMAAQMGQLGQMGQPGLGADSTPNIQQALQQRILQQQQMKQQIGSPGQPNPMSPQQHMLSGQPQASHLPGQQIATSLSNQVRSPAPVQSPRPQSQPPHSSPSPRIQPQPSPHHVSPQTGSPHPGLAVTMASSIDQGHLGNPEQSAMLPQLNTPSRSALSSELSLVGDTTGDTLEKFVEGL

For the compound `CC(=O)N1CCc2c(c(N3CCCc4cc(-c5cnn(C)c5)c(C(F)F)cc43)nn2C2CCN(CC3CC4CCC(C3)N4c3ccc(C(=O)N[C@H]4CC[C@H](Oc5ccc(C#N)c(Cl)c5)CC4)nn3)CC2)C1` (some centres unmarked) [Compound 126, 6-[3-[[4-[5-acetyl-3-[7-(difluoromethyl)-6-(1-methylpyrazol-4-yl)-3,4-dihydro-2H-quinolin-1-yl]-6,7-dihydro-4H-pyrazolo[4,3-c]pyridin-1-yl]-1-piperidyl]methyl]-8-azabicyclo[3.2.1]octan-8-yl]-N-[4-(3-chloro-4-cyano-phenoxy)cyclohexyl]pyridazine-3-carboxamide], in experiment [1] (setting [3]), the EC50 is under 1 nM. Besides, the IC50 in experiment [2] was at most 0.1 nM.

In the case of `CC(=O)N1CCc2c(c(-c3cccc4cc(-c5ccc(CCOC6CCN(c7ccc(C(=O)N[C@H]8CC[C@H](Oc9ccc(C#N)c(Cl)c9)CC8)nn7)CC6)nc5)ncc34)nn2C2CCOCC2)C1` [Compound 27, 6-[4-[2-[5-[8-(5-acetyl-1-tetrahydropyran-4-yl-6,7-dihydro-4H-pyrazolo[4,3-c]pyridin-3-yl)-3-isoquinolyl]-2-pyridyl]ethoxy]-1-piperidyl]-N-[4-(3-chloro-4-cyano-phenoxy)cyclohexyl]pyridazine-3-carboxamide], the EC50 in experiment [1] (setting [4]) was under 1 nM. Further, the half-inhibitory concentration (IC50) in experiment [2] is 0.1 to 1 nM.

With `CC(=O)N1CCc2c(c(N3CCCc4cc(-c5cnn(C)c5)c(C(F)F)cc43)nn2C2CCN([C@@H]3CCCN(c4ccc(C(=O)N[C@H]5CC[C@H](Oc6ccc(C#N)c(Cl)c6)CC5)nn4)C3)CC2)C1` [Compound 259, 6-[(3R)-3-[4-[5-acetyl-3-[7-(difluoromethyl)-6-(1-methylpyrazol-4-yl)-3,4-dihydro-2H-quinolin-1-yl]-6,7-dihydro-4H-pyrazolo[4,3-c]pyridin-1-yl]-1-piperidyl]-1-piperidyl]-N-[4-(3-chloro-4-cyano-phenoxy)cyclohexyl]pyridazine-3-carboxamide], in experiment [1] (setting [4]), the EC50 was 1 to 10 nM. In experiment [2], this compound showed a half-inhibitory concentration (IC50) of 1 to 100 nM.

Turning to `COC(=O)N1c2ccc3c(nc(Cc4ccccc4)n3[C@@H]3CCC[C@H](OCC4CCN(c5ccc(C(=O)N[C@H]6CC[C@H](Oc7ccc(C#N)c(Cl)c7)CC6)nn5)CC4)C3)c2CC[C@@H]1C` [Compound 257], the EC50 in experiment [1] (setting [4]) is 1 to 10 nM. Moreover, the 50% inhibitory concentration (IC50) in experiment [2] lay within 0.1 to 1 nM.

For the compound `CC(=O)N1CCc2c(c(-c3cccc4cc(-c5cnn(C)c5)ncc34)nn2C2CCN(CC3CCN(c4ccc(C(=O)N[C@H]5CC[C@H](Oc6ccc(C#N)c(Cl)c6)CC5)cc4)CC3)CC2)C1` [Compound 162, 4-[4-[[4-[5-acetyl-3-[3-(1-methylpyrazol-4-yl)-8-isoquinolyl]-6,7-dihydro-4H-pyrazolo[4,3-c]pyridin-1-yl]-1-piperidyl]methyl]-1-piperidyl]-N-[4-(3-chloro-4-cyano-phenoxy)cyclohexyl]benzamide], the EC50 in experiment [1] (setting [4]) was 1 to 10 nM. This compound displayed an IC50 in experiment [2] of 0.1 to 1 nM.

Regarding `CC(=O)N1CCc2c(c(N3CCCc4cc(-c5cnn(C)c5)c(C(F)F)cc43)nn2C2CCC3(CC2)CCN(c2ccc(C(=O)N[C@H]4CC[C@H](Oc5ccc(C#N)c(Cl)c5)CC4)nn2)CC3)C1` [Compound 112, 6-[9-[5-acetyl-3-[7-(difluorodimethyl)-6-(1-methylpyrazol-4-yl)-3,4-dihydro-2H-quinolin-1-yl]-6,7-dihydro-4H-pyrazolo[4,3-c]pyridin-1-yl]-3-azaspiro[5.5]undecan-3-yl]-N-[4-(3-chloro-4-cyano-phenoxy)cyclohexyl]pyridazine-3-carboxamide], the EC50 in experiment [1] (setting [4]) was under 1 nM. Also, the IC50 in experiment [2] is 0.1 to 1 nM.

Take `CC(=O)N1CCc2c(c(N3CCCc4cc(-c5cnn(C)c5)c(C(F)F)cc43)nn2C2CCC(CC3CCN(c4ccc(C(=O)N[C@H]5CC[C@H](Oc6ccc(C#N)c(Cl)c6)CC5)nn4)CC3)CC2)C1` (some centres unmarked) [Compound 155, 6-[4-[[4-[5-acetyl-3-[7-(difluoromethyl)-6-(1-methylpyrazol-4-yl)-3,4-dihydro-2H-quinolin-1-yl]-6,7-dihydro-4H-pyrazolo[4,3-c]pyridin-1-yl]cyclohexyl]methyl]-1-piperidyl]-N-[4-(3-chloro-4-cyano-phenoxy)cyclohexyl]pyridazine-3-carboxamide]: the EC50 in experiment [1] (setting [4]) is under 1 nM. The same compound yielded an IC50 in experiment [2] of 0.1 to 1 nM.

For `CC(=O)N1CCc2c(c(-c3cccc4cc(-c5cnn([C@H]6CC[C@H](C7CCN(c8ccc(C(=O)N[C@H]9CC[C@H](Oc%10ccc(C#N)c(Cl)c%10)CC9)nn8)CC7)CC6)c5)ncc34)nn2C2CCOCC2)C1` [Compound 184], the EC50 in experiment [1] (setting [4]) was in the range of 1 to 10 nM. In experiment [2], this compound returned an IC50 of 1 to 100 nM.

Consider `CC(=O)N1CCc2c(c(-c3cccc4cc(C5CC5)ncc34)nn2C2CCN(C(=O)C3CCN(c4ccc(C(=O)N[C@H]5CC[C@H](Oc6ccc(C#N)c(Cl)c6)CC5)nn4)CC3)CC2)C1` [Compound 170, 6-[4-[4-[5-acetyl-3-(3-cyclopropyl-8-isoquinolyl)-6,7-dihydro-4H-pyrazolo[4,3-c]pyridin-1-yl]piperidine1-carbonyl]-1-piperidyl]-N-[4-(3-chloro-4-cyano-phenoxy)cyclohexyl]pyridazine-3-carboxamide], for which the EC50 in experiment [1] (setting [4]) was under 1 nM. This compound also came in with an IC50 in experiment [2] of 0.1 to 1 nM.

In the case of `Cc1cc2c(N3CCN(C)c4cc(-c5cnn(C)c5)c(C#N)cc43)cc(OC3CCN(c4ccc(C(=O)N[C@H]5CC[C@H](Oc6ccc(C#N)c(Cl)c6)CC5)nn4)CC3)cc2n(C)c1=O` [Compound 35, N-[4-(3-chloro-4-cyano-phenoxy)cyclohexyl]-6-[4-[[5-[7-cyano-4-methyl-6-(1-methylpyrazol-4-yl)-2,3-dihydroquinoxalin-1-yl]-1,3-dimethyl-2-oxo-7-quinolyl]oxy]-1-piperidyl]pyridazine-3-carboxamide], the EC50 in experiment [1] (setting [4]) was over 100 nM. The IC50 in experiment [2] fell in the range of 0.1 to 1 nM.

For the compound `CC(=O)N1CCc2c(c(N3CCCc4cc(-c5cnn(C)c5)c(C(F)F)cc43)nn2C2CCN([C@H]3CCN(c4ccc(C(=O)N[C@H]5CC[C@H](Oc6ccc(C#N)c(Cl)c6)CC5)nn4)C3)CC2)C1` [Compound 221, 6-[(3S)-3-[4-[5-acetyl-3-[7-(difluoromethyl)-6-(1-methylpyrazol-4-yl)-3,4-dihydro-2H-quinolin-1-yl]-6,7-dihydro-4H-pyrazolo[4,3-c]pyridin-1-yl]-1-piperidyl]pyrrolidin-1-yl]-N-[4-(3-chloro-4-cyano-phenoxy)cyclohexyl]pyridazine-3-carboxamide], in experiment [1] (setting [4]), the EC50 is over 100 nM. The compound further yielded an IC50 in experiment [2] of 1 to 100 nM.

`CC(=O)N1CCc2c(c(-c3cccc4cc(-c5ccc(CCC6CC7(C6)CN(c6ccc(C(=O)N[C@H]8CC[C@H](Oc9ccc(C#N)c(Cl)c9)CC8)nn6)C7)nc5)ncc34)nn2C2CCOCC2)C1` [Compound 48]: in experiment [1] (setting [3]), the EC50 was under 1 nM. The half-inhibitory concentration (IC50) in experiment [2] is at most 0.1 nM.

Consider `CC(=O)N1CCc2c(c(-c3cccc4cc(C#N)ncc34)nn2C2CCN(CC3CCN(c4ccc(C(=O)N[C@H]5CC[C@H](Oc6ccc(C#N)c(Cl)c6)CC5)nn4)CC3)CC2)C1` [Compound 121, 6-[4-[[4-[5-acetyl-3-(3-cyano-8-isoquinolyl)-6,7-dihydro-4H-pyrazolo[4,3-c]pyridin-1-yl]-1-piperidyl]methyl]-1-piperidyl]-N-[4-(3-chloro-4-cyano-phenoxy)cyclohexyl]pyridazine-3-carboxamide], for which, in experiment [1] (setting [4]), the EC50 was under 1 nM. In experiment [2], this compound yielded an IC50 of 0.1 to 1 nM.

For `CC(=O)N1CCc2c(c(N3CCCc4cc(-c5cnn(C)c5)c(C(F)F)cc43)nn2C2CCN(C[C@H]3[C@H](C)CN(c4ccc(C(=O)N[C@H]5CC[C@H](Oc6ccc(C#N)c(C)c6)CC5)nn4)C[C@@H]3C)CC2)C1` [Compound 289, 6-[4-[[4-[5-acetyl-3-[7-(difluoromethyl)-6-(1-methylpyrazol-4-yl)-3,4-dihydro-2H-quinolin-1-yl]-6,7-dihydro-4H-pyrazolo[4,3-c]pyridin-1-yl]-1-piperidyl]methyl]-3,5-dimethyl-1-piperidyl]-N-[4-(4-cyano-3-methyl-phenoxy)cyclohexyl]pyridazine-3-carboxamide], the EC50 in experiment [1] (setting [4]) is under 1 nM. Also, the IC50 in experiment [2] is at most 0.1 nM.

Turning to `CC(=O)N1CCc2c(c(N3CCCc4cc(C#N)ccc43)nn2C2CCN(C[C@H]3CCN(c4ccc(C(=O)N[C@H]5CC[C@H](Oc6ccc(C#N)c(Cl)c6)CC5)nn4)C[C@H]3C)CC2)C1` [Compound 103, 6-[4-[[4-[5-acetyl-3-(6-cyano-3,4-dihydro-2H-quinolin-1-yl)-6,7-dihydro-4H-pyrazolo[4,3-c]pyridin-1-yl]-1-piperidyl]methyl]-3-methyl-1-piperidyl]-N-[4-(3-chloro-4-cyano-phenoxy)cyclohexyl] pyridazine-3-carboxamide], the EC50 in experiment [1] (setting [4]) was under 1 nM. Also, the IC50 in experiment [2] lay in the range of 0.1 to 1 nM.

With `CC(=O)N1CCc2c(c(N3CCCc4cc(-c5cnn(C)c5)c(C(F)F)cc43)nn2C2CCC3(CC2)CCN(C2CN(c4ccc(C(=O)NC5CCC(Oc6ccc(C#N)c(Cl)c6)CC5)nn4)C2)CC3)C1` (centres unmarked) [Compound 197, 6-[3-[9-[5-acetyl-3-[7-(difluoromethyl)-6-(1-methylpyrazol-4-yl)-3,4-dihydro-2H-quinolin-1-yl]-6,7-dihydro-4H-pyrazolo[4,3-c]pyridin-1-yl]-3-azaspiro[5.5]undecan-3-yl]azetidin-1-yl]-N-[4-(3-chloro-4-cyanophenoxy)cyclohexyl]pyridazine-3-carboxamide], the EC50 in experiment [1] (setting [4]) was under 1 nM. This compound also came in with an IC50 in experiment [2] of at most 0.1 nM.
